Results from patent US20060142621A1, “Bismuth dithiocarbamate compounds and uses thereof” (priority 2003, published 2006).

Legend:
[1] = system: OVCAR human ovarian cancer; assay: in vivo anti-tumour activity, OVCAR xenograft in nude Balb/C mice; design: species or system mouse; details: nude Balb/C mice with OVCAR, 0.14 mg Bi/kg
Description: Female BALB/C-nude mice, obtained from the Animal Resources Centre in Queensland, Australia were used for this experiment. […] Throughout this experiment, the mice were housed in filtered air laminar-flow cabinets and were manipulated following standard aseptic procedures.
Human ovarian cancer (OVCAR) cells were provided by Dr Ho (Department of Pharmacy, National University of Singapore). OVCAR cells were grown in RPMI-1640 medium with 10% foetal bovine serum and 5 mM L-glutamine.
A suspension of OVCAR cells (10^7 cells) were injected subcutaneously (s.c.) in the flank of each animal (0.1 ml per mice). When the volume of the tumour reached approximately 50-100 mm^3, the mice were randomly divided into 2 groups, the test group and the control group, comprising 6 mice in each group.
The compound was given subcutaneously to mice in amounts of 0.1 ml/20 g three times every two days in the first week. The dose applied was at the level of the MTD, i.e. 0.14 mg Bi/kg mouse. […]
In xenografts transplanted subcutaneously, tumour growth was monitored and the volume of the tumour was determined by measuring its diameter with a vernier calliper every 2-4 days. The Relative Tumour Volume (RTV=tumour volume on day×/tumour volume on day 1) was calculated using the formula width^2×length×0.52.

BALB/c mice = assay: Maximum Tolerated Dose (MTD) / lethal dose determination in Balb/C mouse model; format: in vivo
Description: The MTD of Bi(S2CNEt2)3 was determined in the following manner. Male and female BALB/c mice obtained from the Laboratory Animal Centre, (National University of Singapore), were used for the study. The mice used were about 4-5 weeks old with a mean body weight of 20±2 g. The 5 mice per cage were kept at room temperature and under standard light conditions. They received standard mouse chow and water. […] The mice in the control group were administered with DMSO only. […] An initial concentration of 20 mg Bi/kg was used for a small sampling population of two mice, one of each gender. If both mice died, the complex concentration was decreased, and the experiment was repeated for another two mice. If one of the mice died but the other survived, the experiment was repeated for a larger sampling population of ten mice, five of each gender, for the same complex concentration. The observation period lasted 14 days. The objective of the experiment was to plot a graph of percent of live mice (number of survivors/ten×100%) against compound dosage (in mg Bi/kg). This procedure enabled the determination of the Maximum Tolerated Dose (at MTD 90% survival of mice).

[2] = i.p. in DMSO, 14 days observation

“bismuth (III) tris(N,N-diethyldithiocarbamate) [Bi(S2CNEt2)3]” was tested, and the anti-tumour activity [1] was “significant anti-tumour activity”, the MTD (BALB/c mice; MTD = 90% survival of mice) was 0.14 mg Bi/kg mouse and the LD10 (BALB/c mice; [2]) was 0.14 mg/kg. For the same substance, the LD50 (BALB/c mice; [2]) was 3.57 mg/kg and the LD90 (BALB/c mice; [2]) was 7 mg/kg.
